Where “and” joins values, the source holds several entries; their conditions need not be identical. Equal values may be shown once.
Columns and labels:
Solubility of NNI-362 = type: physicochemical
[1] = Phase 1A pharmacokinetics of oral NNI-362 in lipid-based formulation (Cohorts F and G); type: in vivo, human; conditions: for Extrap AUCinf / AUCinf / AUClast / Cmax / MRTinf / Tmax / t1/2 / AUC(0-inf) / AUC(0-t) / MRT inf / half-life: lipid formulation
Method: Exemplary Formulation F2 was prepared by slowly adding NNI-362 into a jar containing 100 mL of lipid-based MCT/Kolliphor EL/Beeswax (95/3/2% w/w) while mixing and then stirring until all powder is wet. The actual weight of NNI-362 was between 11.88 and 12.12 g to provide the nominal concentration of 120 mg/ml.
(§1) A Phase 1A, randomized, placebo-controlled, single and multiple dose, dose-escalation study was conducted to evaluate the safety, tolerability and pharmacokinetics of oral NNI-362 in healthy aged volunteers 50 to 72 years of age. Subjects were fasted prior to dose administration. The plasma concentrations of NNI-362 were determined by a validated bioanalytical method using liquid chromatography-tandem mass spectrometry (LC-MS/MS). The analytical range was 25.0-25000 pg/ml, with 0.0500 ml sample volumes. The stable label d5-NNI-362 was used as the internal standard for this assay.
(§2) NNI-362 was formulated in 1% (w/v) methylcellulose in sterile water as an oral suspension that was administered to Cohorts A-E. NNI-362 was administered in a lipid-based formulation (medium-chain triglycerides, Kolliphor EL and beeswax; 95/3/2%; NNI-362 added to provide 120 mg/ml) oral suspension) for Cohorts F and G.
(§3) PK data analysis was performed on the measurable plasma concentrations of NNI-362. The plasma concentration data were evaluated using Phoenix 64® WinNonlin® software (Version 8.3) to perform noncompartmental analysis. Nominal blood collection times were used in data analysis. The dose administered in dose group was entered into the program as mg/subject.
(§4) The following PK parameters were determined for NNI-362 plasma concentrations for each subject: observed maximal plasma concentration (Cmax), observed time to reach Cmax (Tmax), area under the plasma concentration time curve up to the last blood collection time (AUClast), and extrapolated to infinity (AUCinf), the percent of AUCinf that was extrapolated (% Extrap AUCinf), terminal elimination half-life (t1/2), and mean residence time to infinity (MRTinf). Terminal t1/2, AUCinf, MRTinf could not be calculated in some subjects due to limited data or poor fit (r<0.8) of the terminal phase of the plasma concentration and time curve. Extrapolation of more than 20% of the AUC may result in unreliable values for the terminal parameters.
The correlation coefficient for the terminal phase was determined using WinNonlin. Significant differences in selected pharmacokinetic parameters between the SAD and MAD dose groups of cohorts F and G were evaluated using the t-test (two tail, paired test; p<0.05).

[2] = Phase 1A pharmacokinetics of oral NNI-362 in 1% methylcellulose suspension (Cohorts A-E); type: in vivo, human
Method: as §1, §2, §3, §4

[3] = Cohort F, 120 mg oral, MAD, individual subjects
[4] = Cohort F, 120 mg oral, SAD, individual subjects
[5] = Cohort G, 240 mg oral, MAD, individual subjects
[6] = Cohort G, 240 mg oral, SAD, individual subjects
[7] = human, plasma, po, 120 mg, Cohort F, 120 mg oral, MAD, cohort mean
[8] = human, plasma, po, 120 mg, Cohort F, 120 mg oral, SAD, cohort mean
[9] = human, plasma, po, 120 mg, Cohort F, 120 mg oral, SAD, individual subjects
[10] = human, plasma, po, 240 mg, Cohort G, 240 mg oral, MAD, cohort mean
[11] = human, plasma, po, 240 mg, Cohort G, 240 mg oral, SAD, cohort mean
[12] = 60 mg oral, SAD, individual subjects
[13] = 120 mg oral, SAD, individual subjects
[14] = human, plasma, 60 mg oral, SAD, individual subjects
[15] = human, plasma, 120 mg oral, SAD, individual subjects

solubility (Solubility of NNI-362; common organic solvents): soluble in common organic solvents
solubility (Solubility of NNI-362; water/aqueous solutions): insoluble in water/aqueous solutions
Extrap AUCinf ([1]; Cohort F, 120 mg oral, MAD, cohort mean): 30.0%
Tmax [1, 3]: 6 h and 2 h and 8 h
Extrap AUCinf ([1]; Cohort F, 120 mg oral, SAD, cohort mean): 43.8%
AUCinf [1, 4]: 0.8 ng·h/mL and 0.511 ng·h/mL
Extrap AUCinf [1, 4]: 36.9% and 29.9% and 64.5%
MRTinf [1, 4]: 10.2 h and 12.4 h
t1/2 [1, 4]: 6.15 h and 8.13 h
Extrap AUCinf ([1]; Cohort G, 240 mg oral, MAD, cohort mean): 34.4%
Tmax [1, 5]: 2 h and 6 h and 1 h
Extrap AUCinf ([1]; Cohort G, 240 mg oral, SAD, cohort mean): 28.3%
Extrap AUCinf [1, 6]: 14.4% and 51.1% and 19.3%
MRTinf [1, 6]: 7.76 h and 36.9 h and 5.56 h
Tmax [1, 6]: 2 h and 6 h and 1 h and 4 h
t1/2 [1, 6]: 2.6 h and 2.30 h
Concentration ([1]; Formulation F2, Cohort F, 120 mg single dose, Day 1, K3 EDTA human plasma, patient SRI-F-005, 0 h): < LLOQ
Concentration ([1]; Formulation F2, Cohort F, 120 mg single dose, Day 1, K3 EDTA human plasma, patient SRI-F-005, 12 h): < LLOQ
Concentration ([1]; Formulation F2, Cohort F, 120 mg single dose, Day 1, K3 EDTA human plasma, patient SRI-F-005, 24 h): < LLOQ
Tmax ([1]; human, plasma, oral, range over Cohorts F and G, SAD and MAD, read-out: Tmax values): 0.5 to 8 h
AUC(0-inf) [1, 7]: 3.43 ± 3.3 ng·h/mL
AUC(0-t) [1, 7]: 1.68 ng·h/mL
MRT inf [1, 7]: 19.2 ± 14.3 h
half-life [1, 7]: 12.2 ± 10.2 h
Cmax ([1]; human, plasma, po, 120 mg, Cohort F, 120 mg oral, MAD, cohort mean, read-out: Cmax): 0.129 ng/mL
Cmax ([1]; human, plasma, po, 120 mg, Cohort F, 120 mg oral, MAD, cohort mean, read-out: Cmax after multiple doses): 0.129 ± 0.0673 ng/mL
Tmax ([1]; human, plasma, po, 120 mg, Cohort F, 120 mg oral, MAD, cohort mean, read-out: Tmax): 4.33 h
AUC(0-inf) [1, 8]: 0.59 ± 0.184 ng·h/mL
AUC(0-t) [1, 8]: 0.559 ng·h/mL
MRT inf [1, 8]: 9.99 ± 2.55 h
half-life [1, 8]: 6.24 ± 1.84 h
Cmax ([1]; human, plasma, po, 120 mg, Cohort F, 120 mg oral, SAD, cohort mean, read-out: Cmax): 0.0924 ± 0.0606 ng/mL
Tmax ([1]; human, plasma, po, 120 mg, Cohort F, 120 mg oral, SAD, cohort mean, read-out: Tmax): 3.58 h
AUC(0-inf) [1, 9]: 0.458 ng·h/mL
MRT inf [1, 9]: 7.35 h
half-life [1, 9]: 4.45 h
AUC(0-inf) [1, 10]: 2.83 ± 1.96 ng·h/mL
AUC(0-t) [1, 10]: 2.04 ng·h/mL
MRT inf [1, 10]: 17.7 ± 13 h
half-life [1, 10]: 11.7 ± 8.94 h
Cmax ([1]; human, plasma, po, 240 mg, Cohort G, 240 mg oral, MAD, cohort mean, read-out: Cmax): 0.239 ± 0.23 ng/mL
Tmax ([1]; human, plasma, po, 240 mg, Cohort G, 240 mg oral, MAD, cohort mean, read-out: Tmax): 3.17 h
AUC(0-inf) [1, 11]: 1.32 ± 0.681 ng·h/mL
AUC(0-t) [1, 11]: 0.585 ng·h/mL
MRT inf [1, 11]: 16.7 ± 17.5 h
half-life [1, 11]: 2.58 ± 0.25 h
Cmax ([1]; human, plasma, po, 240 mg, Cohort G, 240 mg oral, SAD, cohort mean, read-out: Cmax): 0.099 ng/mL
Tmax ([1]; human, plasma, po, 240 mg, Cohort G, 240 mg oral, SAD, cohort mean, read-out: Tmax): 2.83 h
Cmax ([1]; human, plasma, po, 240 mg, Cohort G, 240 mg oral, SAD, cohort mean, read-out: mean Cmax): 0.099 ± 0.0639 ng/mL
half-life ([1]; human, plasma, po, 240 mg, Cohort G, 240 mg oral, SAD, individual subjects): 2.8 h
concentration at 0.5 h ([1]; oral, Formulation F2, Cohort F, 120 mg single dose, Day 1, K3 EDTA human plasma, patient SRI-F-005, 0.5 h): 0.0768 ng/mL
concentration at 1 h ([1]; oral, Formulation F2, Cohort F, 120 mg single dose, Day 1, K3 EDTA human plasma, patient SRI-F-005, 1 h): 0.0834 ng/mL
concentration at 2 h ([1]; oral, Formulation F2, Cohort F, 120 mg single dose, Day 1, K3 EDTA human plasma, patient SRI-F-005, 2 h): 0.0388 ng/mL
concentration at 4 h ([1]; oral, Formulation F2, Cohort F, 120 mg single dose, Day 1, K3 EDTA human plasma, patient SRI-F-005, 4 h): 0.0253 ng/mL
concentration at 6 h ([1]; oral, Formulation F2, Cohort F, 120 mg single dose, Day 1, K3 EDTA human plasma, patient SRI-F-005, 6 h): 0.0267 ng/mL
concentration at 8 h ([1]; oral, Formulation F2, Cohort F, 120 mg single dose, Day 1, K3 EDTA human plasma, patient SRI-F-005, 8 h): 0.0263 ng/mL
Cmax ([2]; 20 mg oral, MAD, individual subjects): 0.0251 ng/mL
AUClast [2, 12]: 0.623 ng·h/mL
Cmax [2, 12]: 0.069 ng/mL and 0.0468 ng/mL and 0.0336 ng/mL
Extrap AUCinf [2, 12]: 24.1%
Tmax [2, 12]: 6 h and 24 h
Cmax [2, 13]: 0.0426 ng/mL and 0.0601 ng/mL
Extrap AUCinf [2, 13]: 54.5%
Tmax [2, 13]: 6 h and 2 h
plasma drug concentrations ([2]; Cohort B, 20 mg oral, two subjects, one plasma sample each): > 0.025 ng/mL
AUC(0-inf) [2, 14]: 0.622 ng·h/mL
MRT inf [2, 14]: 9.2 h
half-life [2, 14]: 4.09 h
AUC(0-inf) [2, 15]: 0.908 ng·h/mL
MRT inf [2, 15]: 5.5 h
half-life [2, 15]: 13.7 h
Cmax ([2]; human, plasma, po, 20 mg, 20 mg oral, MAD, individual subjects, read-out: Cmax): 0.0151 ng/mL
Tmax ([2]; human, plasma, po, 20 mg, 20 mg oral, MAD, individual subjects, read-out: Tmax): 12 h
AUC(0-t) ([2]; human, plasma, po, 60 mg, 60 mg oral, SAD, individual subjects): 0.473 ng·h/mL
AUC(0-t) ([2]; human, plasma, po, 120 mg, 120 mg oral, SAD, individual subjects): 0.414 ng·h/mL
Cmax ([2]; human, plasma, po, 120 mg, 120 mg oral, SAD, individual subjects, read-out: Cmax): 0.037 ng/mL
SMILES: CCOc1ccccc1NC(=S)N1CCCN(c2nc3cc(C)c(C)cc3cc2C#N)CC1 [NNI-362]
AUCinf [1, 3]: 1.28 ng·h/mL and 3.74 ng·h/mL and 8.95 ng·h/mL and 0.719 ng·h/mL and 2.44 ng·h/mL
AUClast [1, 3]: 1.15 ng·h/mL and 2.68 ng·h/mL and 3.8 ng·h/mL and 0.525 ng·h/mL and 1.77 ng·h/mL and 0.179 ng·h/mL
Cmax [1, 3]: 0.193 ng/mL and 0.144 ng/mL and 0.208 ng/mL and 0.0638 ng/mL and 0.126 ng/mL and 0.0404 ng/mL
Extrap AUCinf [1, 3]: 9.78% and 28.4% and 57.5% and 26.9% and 27.7%
MRTinf [1, 3]: 6.68 h and 19.3 h and 42.9 h and 9.7 h and 17.6 h
AUClast [1, 4]: 0.555 ng·h/mL and 1.21 ng·h/mL and 0.289 ng·h/mL and 0.561 ng·h/mL and 0.182 ng·h/mL
Cmax [1, 4]: 0.101 ng/mL and 0.208 ng/mL and 0.0484 ng/mL and 0.0834 ng/mL and 0.0701 ng/mL and 0.0435 ng/mL
Tmax [1, 4]: 6 h and 8 h and 2 h and 1 h and 4 h and 0.5 h
AUCinf [1, 5]: 4.52 ng·h/mL and 0.426 ng·h/mL and 4.23 ng·h/mL and 3.98 ng·h/mL and 0.975 ng·h/mL
AUClast [1, 5]: 1.99 ng·h/mL and 0.235 ng·h/mL and 4 ng·h/mL and 2.61 ng·h/mL and 2.85 ng·h/mL and 0.569 ng·h/mL
Cmax [1, 5]: 0.124 ng/mL and 0.059 ng/mL and 0.679 ng/mL and 0.221 ng/mL and 0.267 ng/mL and 0.0822 ng/mL
Extrap AUCinf [1, 5]: 54.8% and 43.9% and 5.10% and 27.7% and 40.5%
MRTinf [1, 5]: 39.5 h and 7.10 h and 9.51 h and 18.8 h and 13.5 h
t1/2 [1, 5]: 26.2 h and 4.29 h and 5.10 h and 13.5 h and 9.24 h
AUCinf [1, 6]: 0.79 ng·h/mL and 2.09 ng·h/mL and 1.09 ng·h/mL
AUClast [1, 6]: 0.103 ng·h/mL and 0.677 ng·h/mL and 0.243 ng·h/mL and 1.02 ng·h/mL and 0.88 ng·h/mL
Cmax [1, 6]: 0.0523 ng/mL and 0.0316 ng/mL and 0.13 ng/mL and 0.0857 ng/mL and 0.0846 ng/mL and 0.21 ng/mL
plasma concentrations of NNI-362 ([2]; Cohort A, single oral dose of 10 mg per subject, LLOQ 25 pg/ml): no plasma samples from these subjects contained quantifiable concentrations

Reference: patent US20240285646A1, “METHODS AND COMPOSITIONS FOR LIPID FORMULATION OF LIPOPHILIC SMALL MOLECULE THERAPIES OF THE HETEROCYCLIC TYPE” (Neuronascent, Inc., priority 2021, published 2024)
